Values quoted from earlier work in US20250352523A1, “TRIPLE PHARMACEUTICAL COMPOSITION FOR PROTEINACEOUS INFECTION” (priority 2024, published 2025).

Tests used:
[1] = system: AD; settings: in vivo
[2] = system: patients with AD; settings: human, in vivo
[3] = system: AD patients; settings: twelve months' treatment, versus placebo

| Compound | beneficial effects on AD [1] | also measured |
| --- | --- | --- |
| CC(=O)Nc1ccc(O)cc1 [Acetaminophen] | not found to have beneficial effects |  |
| COc1ccc2cc([C@H](C)C(=O)O)ccc2c1 [Naproxen] |  | cognitive function in patients with AD [2]: did not improve cognitive function |
| CO[C@H]1/C=C/O[C@@]2(C)Oc3c(C)c(O)c4c(O)c(c(/C=N/N5CCN(C)CC5)c(O)c4c3C2=O)NC(=O)/C(C)=C\C=C\[C@H](C)[C@H](O)[C@@H](C)[C@@H](O)[C@@H](C)[C@H](OC(C)=O)[C@@H]1C [rifampin] |  | effects on cognition or function in AD [3]: no beneficial effects |
| CC(=O)Oc1ccccc1C(=O)O [aspirin] | not found to have beneficial effects |  |
